Test results as given in patent publication US12139729B2, “Neurodegenerative disorders” (priority 2013, dated 2024).
Read-outs that look alike come from different tables or passages of the source. Residues, ends and D or L forms follow the SMILES beside them. No end group written: not given here.

Experiments:
[1] = Sulforhodamine B (SRB) cell viability assay; assay type: cell-based; conditions: 1 hour
Description: Wild-type PC12 cell were provided by Sigma-Aldrich (St. Louis, MO). The culture was routinely plated in 100 mm dishes (Corning) coated with collagen (2 μg/cm^2) and maintained in growth medium with Minimum Essential Medium Eagle (MEM) supplemented with heat-inactivated 10% horse serum (HS) and 5% foetal bovine serum (FBS), 10 mM HEPES, 2 mM L-Glutamine and 1:400 Penicillin/streptomycin solution. Cells were maintained at 37° C. in a humidified atmosphere 5% CO2 and the medium was replaced every 2 days. For splitting, cells were dislodged from the dish using a pipette with medium, with a portion of these replated onto new cultured dishes. Cells were used between passages 12 and 25.
The cell viability assay used was the sulforhodamine B (SRB) colorimetric assay for toxicity screening. The day before of the experiment cells were seeded onto collagen-coated 96-well plates in a concentration of 40,000 cells/well. Cell concentration was determined by the Fuchs-Rosenthal chamber. […] After treatment, medium was replaced and cells were fixed by adding 100 μl of 10% Trichloroacetic Acid (TCA) for 1 h at 4° C. Thereafter, cells were washed with H2O and stained with 100 μl of a 0.057% SRB solution in 1% Acetic acid (HAc) for 30 minutes at room temperature. After staining cells were washed with 1% HAc for removing the excess of SRB and then incubated with 200 μl of 10 mM Tris base (pH 10.5) and shake it for 5 minutes to solubilise the protein-bound dye. Measurement of the absorbance took place in a VMax Kinetic Microplate Reader (Molecular Devices) at 490 nm.

PC12 cells = experiment: AChE release / AChE activity in perfusate of treated PC12 cells (Ellman assay); assay type: cell-based
[2] = target: T1, acetylcholinesterase (AChE) (Rattus norvegicus, UniProt P37136); experiment: Acetylcholinesterase enzymatic activity assay (Ellman reagent); assay type: biochemical
T1 construct: endogenous in cells; host or cells: PC12 cells (released enzyme in the supernatant)
T1 sequence (P37136 32-614): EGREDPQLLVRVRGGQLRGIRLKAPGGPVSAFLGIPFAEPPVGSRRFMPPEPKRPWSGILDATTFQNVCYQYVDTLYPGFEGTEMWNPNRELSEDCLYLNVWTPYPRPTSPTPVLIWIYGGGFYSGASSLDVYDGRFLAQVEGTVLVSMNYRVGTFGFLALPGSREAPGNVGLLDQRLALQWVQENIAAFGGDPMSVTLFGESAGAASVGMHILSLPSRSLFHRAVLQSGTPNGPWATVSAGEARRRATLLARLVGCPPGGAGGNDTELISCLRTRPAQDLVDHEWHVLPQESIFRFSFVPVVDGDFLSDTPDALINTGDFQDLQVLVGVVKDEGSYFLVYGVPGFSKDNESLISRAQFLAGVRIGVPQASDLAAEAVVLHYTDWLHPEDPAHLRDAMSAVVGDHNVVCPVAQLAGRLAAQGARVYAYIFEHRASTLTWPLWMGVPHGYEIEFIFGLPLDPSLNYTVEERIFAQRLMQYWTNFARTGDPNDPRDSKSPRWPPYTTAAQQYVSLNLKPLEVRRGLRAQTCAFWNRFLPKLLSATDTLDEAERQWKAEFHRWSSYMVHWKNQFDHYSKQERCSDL
Description: AChE activity was measured using the Ellman reagent that measures the presence of thiol groups as a result of AChE activity. Cells were plated the day before the experiment as for the cell viability assay. Cells were treated with different concentrations of Cyclic T14 (0.1-100 μM) and T30, T14 and Aβ 10 μM alone or combined with Cyclic T14 (0.1 and 0.7 μM). […] The Ellman reagent was prepared as a mixture of the 3 solutions in a ratio 33(A):3(B):4(C). Absorbance measurements were taken at regular intervals (3, 10, 30 and 60 mins) across experiments at 405 nm.
The inventor next decided to confirm whether or not Cyclic T14 affects the enzymatic activity of acetylcholinesterase (AChE). AChE enzymatic activity was measured using the acetylcholinesterase activity assay.

[3] = test system: rat model for hemi-Parkinsonism; experiment: Paw placement test (cylinder test) after 6-OHDA lesion; assay type: in vivo; conditions: day 2: two days post 6-OHDA, one day after NBP-14 injection via cannula into MFB; p<0.05 vs 6-OHDA vehicle
Description: Unlike animal models for Alzheimer's disease, the rat model for hemi-Parkinsonism is very well established and readily quantifiable. Accordingly, a unilateral intra striatum injection of the T30 was administered to observe any behavioural effects of the toxin. In a subsequent experiment, the potential protective effects of NBP14 were observed against the well-known neurotoxin 6-hydroxydopamine (6-OHDA), which led to DA neuron loss on the injected side whilst sparing the contralateral DA neurons. NBP-14 was administered via implanted cannula into the medial forebrain bundle (MFB). 6-hydroxydopamine was injected at 10 mg/kg.
Animals are anaesthetized using Ketamine (10%; 0.1 ml/kg body weight) and Xylazine (2%; 0.01 ml/kg). The animals are then stereotactically injected into the MFB with 2 μL 6-OHDA at a concentration of 20 mg/ml in 0.02% ascorbic acid. […]
Paw Placement Test (Cylinder Test): This test assesses a rat's independent forelimb use to support the body against the walls of a cylindrical enclosure. […] To perform this test, rats are placed individually in a glass cylinder (21 cm diameter, 34 cm height) and wall exploration is recorded for 3 minutes. […] Wall exploration is expressed in terms of the ratio between the intact (R) and impaired legs (L) and calculated as the values of intact right+both forelimbs divided into the values of impaired left+both forelimbs (R/L). […]

Compound: KAEFHRWSSYMVHWKNQFDHYSKQDRCSDL [T30, reference compound]
- viability at 10 µM ([1]; 10 μM, PC12, read-out: cell viability, peptide alone): 68.4 ± 3.1%
- AChE activity, peptide alone (PC12 cells; 10 μM, 1 hour, PC12): 129.10±1.18
- released AChE activity (PC12 cells; T30 5 uM alone, N=3): 169.45%±2.11

Compound: CSCC[C@@H]1NC(=O)[C@H](Cc2ccc(O)cc2)NC(=O)[C@H](CO)NC(=O)[C@H](CO)NC(=O)[C@H](Cc2c[nH]c3ccccc23)NC(=O)[C@H](CCCNC(=N)N)NC(=O)[C@H](Cc2c[nH]cn2)NC(=O)[C@H](Cc2ccccc2)NC(=O)[C@H](CCC(=O)O)NC(=O)[C@H](C)NC(=O)[C@H](CCCCN)NC(=O)[C@H](Cc2c[nH]c3ccccc23)NC(=O)[C@H](Cc2c[nH]cn2)NC(=O)[C@H](C(C)C)NC1=O [Cyclic T14] (cyclo(AEFHRWSSYMVHWK))
- viability ([1]; T30 10 μM + Cyclic T14 100 nM, read-out: cell viability, T30 combined with Cyclic T14): 88.6 ± 8.79%
- viability ([1]; cell viability, β-amyloid combined with Cyclic T14, β-Amyloid 10 μM + Cyclic T14 100 nM): 94.5 ± 7.4%
- viability ([1]; cell viability, β-amyloid combined with Cyclic T14, β-Amyloid (10 μM) + Cyclic T14 0.5 nM): 88.5 ± 10%
- viability ([1]; cell viability, β-amyloid combined with Cyclic T14, β-Amyloid (10 μM) + Cyclic T14 1 nM): 97.3 ± 9.57%
- viability ([1]; cell viability, β-amyloid combined with Cyclic T14, β-Amyloid (10 μM) + Cyclic T14 10 nM): 102 ± 8.53%
- viability ([1]; cell viability, β-amyloid combined with Cyclic T14, β-Amyloid (10 μM) + Cyclic T14 50 nM): 102 ± 14%
- viability at 10 µM ([1]; cell viability, β-amyloid combined with Cyclic T14, β-Amyloid (10 μM) + Cyclic T14 'moo' (nM)): 104 ± 6.34%
- viability at 1 h, 0.1 µM ([1]; rat, PC12 cells (wild-type), Cyclic T14 alone 100 nM, PC12): 98.8 ± 15.2%
- viability at 1 h, 0.7 µM ([1]; rat, PC12 cells (wild-type), Cyclic T14 alone 700 nM, PC12): 107 ± 19.9%
- viability at 1 h, 1 µM ([1]; rat, PC12 cells (wild-type), Cyclic T14 alone 1 μM, PC12): 105 ± 10.9%
- viability at 1 h, 100 µM ([1]; rat, PC12 cells (wild-type), Cyclic T14 alone 100 μM, PC12): 93.6 ± 11.6%
- effect on enzyme activity of acetylcholinesterase ([2]; 2 μM): did not affect
- effect on AChE activity (Table 3 feature) ([2]; ✓ = Dream Drug feature 'Does not affect AChE activity'): ✓
- AChE activity, T14 combined with Cyclic T14 (PC12 cells; T14 10 μM + Cyclic T14 100 nM, 1 hour): 112.30±1.39
- released AChE activity, T30 + NBP-14 (PC12 cells; T30 5 uM + NBP-14 5 nM (1st of 10 values)): 130.73±1.84%
- released AChE activity, T30 + NBP-14 (PC12 cells; T30 5 uM + NBP-14 7 nM (2nd of 10 values)): 111.68±2.26%
- released AChE activity, T30 + NBP-14 (PC12 cells; T30 5 uM + NBP-14 9 nM (3rd of 10 values)): 92.78±0.99%
- released AChE activity, T30 + NBP-14 (PC12 cells; T30 5 uM + NBP-14 10 nM (4th of 10 values)): 82.56±2.38%
- released AChE activity, T30 + NBP-14 (PC12 cells; T30 5 uM + NBP-14 20 nM (5th of 10 values)): 68.90±0.92%
- released AChE activity, T30 + NBP-14 (PC12 cells; T30 5 uM + NBP-14 50 nM (6th of 10 values)): 65.12±1.32%
- released AChE activity, T30 + NBP-14 (PC12 cells; T30 5 uM + NBP-14 70 nM (7th of 10 values)): 61.04±0.97%
- released AChE activity, T30 + NBP-14 (PC12 cells; T30 5 uM + NBP-14, 8th of 10 values, concentration unclear): 79.43±1.69%
- released AChE activity, T30 + NBP-14 (PC12 cells; T30 5 uM + NBP-14, 9th of 10 values, concentration unclear): 83.91±1.24%
- released AChE activity, T30 + NBP-14 (PC12 cells; T30 5 uM + NBP-14, 10th of 10 values, concentration unclear): 89.55±1.25%
- concentration range protective against AChE compensatory effects (PC12 cells; T30 5 uM, FIG. 14): high nanomolar concentrations
- R/L ratio of paw placement [3]: 3.62±0.55
